From article PMC10860144, “Exploring the Dispersion and Electrostatic Components in Arene–Arene Interactions between Ligands and G4 DNA to Develop G4-Ligands” (Journal of Medicinal Chemistry, 2024)

Key:
c-MYC Pu22 G4 DNA [1] = assay: FRET melting assay, c-MYC Pu22 G4 DNA; format: binding, human; conditions: c-MYC Pu22 G4 DNA 0.2 μM; for increased thermal stability (ΔTm): 40 equivalences of added compound
From the text: The synthesized compounds (2–11) were first analyzed using a Förster resonance energy transfer (FRET) assay (Figure 2A). This assay measures the compounds’ ability to affect the thermal stability of fluorescently labeled DNA, in this case, the c-MYC Pu22 G4 DNA (Table S1). […] The addition of one methyl group to the quinazoline core (3) provides almost twice as strong thermal stability compared to 2. The addition of a second methyl group (4) further increased stabilization, albeit modestly (by 0.5 °C). This slight increase between 3 and 4 could stem from the suboptimal positioning of the added methyl substituent in relation to the guanines on the G4 surface, compared to other positions on the quinazoline ring. […] Furthermore, the methyl-substituted (4) and the methoxy-substituted (6) display a similar G4 stabilization despite the strong electrostatic character of the methoxy substituent compared to the neutral methyl group, which further supports that these interactions are dispersion-driven. This conclusion is further supported by the fact that the replacement of the methoxy group in 6 with chlorine in 7 results in a very similar stabilization as 3, 4, and 6.
Synthetic labeled oligonucleotides for the FRET study were purchased from Eurofins Genomics. Stock solutions were prepared in MQ-water at 100 μM concentration. The sequences used are listed in Supporting Information Table S1. All the oligonucleotides except Pu22 were prefolded in 10 mM lithium cacodylate buffer (pH 7.4), with 10 mM KCl and 90 mM LiCl by heating for 10 min at 95 °C and then cooling in fridge for at least 1 h. Pu22 was folded in 10 mM lithium cacodylate buffer (pH 7.4), with 2 mM KCl and 98 mM LiCl.
The FRET occurs between two dyes (5′-FAM as donor and 3′-TAMRA as acceptor) linked at both extremities of a DNA oligonucleotide. When the oligonucleotides are folded into G4 structures, the donor and acceptor are in proximity, which results in an energy transfer from the donor to the acceptor. This process can be detected by a reduction in the fluorescence emission of the donor. Fluorescence emission of the donor is recovered when the temperature increment triggers the thermal denaturation of the G4 structure. The experiments were performed in a Bio-Rad CFX96 real-time PCR device at temperatures from 10 to 95 °C at 1.5 °C/m heating rate using a 492 nm excitation wavelength and a 516 nm detection wavelength in 96-well plates. […] The stabilization (ΔTm) is calculated from comparison of Tm of the fluorescently labeled oligonucleotide in the presence or absence of the ligand. […]
The fluorescence resonance energy transfer (FRET) occurs between two dyes (5'-FAM as donor and 3'- TAMRA as acceptor) linked at both extremities of a DNA oligonucleotide. […]

logD at pH 7.4 = format: physicochemical
Protocol: Physicochemical properties
The Physicochemical profiling (LogD, Solubility, Caco-2 cell permeability) was performed as previously
described.8 Cell viability was performed as described below.
Table S2. Pharmacokinetic Properties
Compound Structure logD, Solubility, Rat hepsa Human mics b

c-MYC Pu22 G4 DNA [2] = assay: Microscale thermophoresis (MST), c-MYC Pu22 G4 DNA; format: binding, human; conditions: Cy5-labeled c-MYC Pu22 G4 DNA 25 nM; pH 7.4, 100 mM KCl; read-out: apparent Kd (MST)
Protocol: To evaluate the apparent binding affinities (Kd) for the compound series, we next used microscale thermophoresis (MST) with fluorescently labeled c-MYC Pu22 G4 DNA (Table S1). Overall, the measured MST binding results for compounds 2–11 corresponded well with the results from the FRET assay (Figures 2B and S3).
5′-Cy5 labeled G4 DNAs for this study were purchased from Eurofins Genomics. Stock solutions were prepared in water at 100 μM concentration. The sequences used are listed in Supporting Information Table S1. The G4 DNA sequences were folded in KCl buffer (10 mM phosphate, 100 mM KCl, pH 7.4) by heating at 95 °C for 5 min and then cooling to room temperature. All the experiments were performed in 10 mM phosphate pH 7.4, 100 mM KCl, and 0.05% Tween20. The labeled DNA concentration is held constant at 25 nM, and ligand concentration is varied depending on ligands Kd (16 1:3 dilutions). The samples were loaded into standard MST graded glass capillaries and initial fluorescence intensity of the capillary was measured using Monolith NT.115 (Nano Temper, Germany) with 20% LED power. The change in fluorescence with ligand’s concentrations were plotted in Excel and fitted through nonlinear equation to obtain the binding constants. […]
Microscale Thermophoresis (MST)
5'- Cy5 labelled G4 DNAs for this study were purchased from Eurofins Genomics. Stock solutions were prepared in water at […] concentration. The sequences used are listed in supplementary Table S1. The G4 DNA sequences were folded in KCl buffer (10 mM phosphate, 100 mM KCl, pH 7.4) by heating at 95 °C for 5 min and then cooling to room temperature. All the experiments were performed in 10 mM phosphate pH 7.4, 100 mM KCl, 0.05% Tween20. The labelled DNA concentration is held constant at 25 nM and ligand concentration is varied depending on ligands Kd (sixteen 1:3 dilutions). The samples were loaded into standard MST graded glass capillaries and initial fluorescence intensity of the capillary were measured using Monolith NT.115 (Nano Temper, Germany) with 20% LED power. The change in fluorescence with ligand's concentrations were plotted in Excel and fitted through non-linear equation to obtain the binding constants.
(1 picture or pasted object on this page, not shown here)

Row | logD (logD at pH 7.4) | Kd (c-MYC Pu22 G4 DNA [2]) | Compound | increased thermal stability (ΔTm) (c-MYC Pu22 G4 DNA [1]) | increase in thermal stability (ΔTm) (c-MYC Pu22 G4 DNA [1]; compound 8 μM)
1 | -0.1 | 1400 nM | Cc1cc(NCCCN(C)C)nc(Nc2ncc3ccccc3n2)n1 [Compound 2, N4-(3-(Dimethylamino)propyl)-6-methyl-N2-(quinazolin-2-yl)pyrimidine-2,4-diamine] | 7.5 °C | –
2 | 0.6 | 50 nM | Cc1cc(C)c2nc(Nc3nc(C)cc(NCCCN(C)C)n3)nc(C)c2c1 [Compound 5, N4-(3-(Dimethylamino)propyl)-6-methyl-N2-(4,6,8-trimethylquinazolin-2-yl)pyrimidine-2,4-diamine] | 20 °C | –
3 | 2.9 | 800 nM | Cc1cc(C)c2nc(Nc3nc(C)cc(C)n3)nc(C)c2c1 [Compound 27, N-(4,6-Dimethylpyrimidin-2-yl)-4,6,8-trimethylquinazolin-2-amine] | – | 12 °C
